Reference: article PMC11904993, “Humanized Candida and NanoBiT Assays Expedite Discovery of Bdf1 Bromodomain Inhibitors With Antifungal Potential” (Advanced Science, 2025)
Values joined by “and” are separate entries in the source; they are usually repeats but may differ in a detail not shown here. Equal values may be shown once. Read-outs that look alike come from different tables or passages of the source.

Tests used:
[1] = system: C. glabrata strains expressing WT and mutant Bdf1; test: Growth inhibition in liquid media, C. glabrata lab strains; details: for pEC50 growth inhibition: Fig 2C; for % Growth (OD at 600 nm): Fig 2F
Protocol: Growth on Liquid Media with C. glabrata Lab Strains: Cells were grown at 30 °C in SC+M+C‐U medium (SC medium with 5 mM methionine, 0.25 mM cysteine, without uracil) to an OD600 of 0.5–0.8. […] Plates were incubated at 30 °C and OD600 was measured using a Multiskan FC Microplate Photometer (Thermo Fisher).

human Brd4 BD2 = target: T1, human Brd4 BD2 (Homo sapiens, UniProt O60885); test: HTRF assay, inhibition of H4ac4 peptide binding; details: for %HTRF Signal hBrd4 BD2: Fig 2E
T1 construct: GST‐tagged BD2 (residues 349–460) from human Brd4 (UniProt ID O60885); purchased Reaction Biology Corp

human Brd4 BD1 = human Brd4 BD1 (Homo sapiens, UniProt O60885); test: HTRF assay, inhibition of H4ac4 peptide binding; details: for %HTRF Signal hBrd4 BD1: Fig 2E

## Cc1ccc(-c2nnc(C)c(NCc3ccc(C)o3)n2)cc1 [Compound 24c, 6‐methyl‐N‐((5‐methylfuran‐2‐yl)methyl)‐3‐(p‐tolyl)‐1,2,4‐triazin‐5‐amine]
[1]; strain BD1 Y-F, single experiments Exp1-3
  pEC50 growth inhibition: 4.034 and 3.821
[1]; strain BD2 Y-F, single experiments Exp1-3
  pEC50 growth inhibition: 4.481 and 4.395
[1]; Fig 2D, WT C. glabrata, single experiments Exp1-3
  pEC50 (WT BDF1): 4.014 and 4.016
[1]; WT BDF1, 6.25 microM
  % Growth (OD at 600 nm): 98% and 99% and 101%
[1]; WT BDF1, 12.5 microM
  % Growth (OD at 600 nm): 95% and 97% and 99%
[1]; WT BDF1, 25 microM
  % Growth (OD at 600 nm): 88% and 91% and 95%
[1]; WT BDF1, 50 microM
  % Growth (OD at 600 nm): 65% and 71% and 69%
[1]; WT BDF1, 100 microM
  % Growth (OD at 600 nm): 44% and 45% and 46%
[1]; bdf1-bd1Y166F, 6.25 microM
  % Growth (OD at 600 nm): 99% and 101% and 98%
[1]; bdf1-bd1Y166F, 12.5 microM
  % Growth (OD at 600 nm): 102% and 92% and 98%
[1]; bdf1-bd1Y166F, 25 microM
  % Growth (OD at 600 nm): 92% and 82% and 97%
[1]; bdf1-bd1Y166F, 50 microM
  % Growth (OD at 600 nm): 88% and 74% and 81%
[1]; bdf1-bd1Y166F, 100 microM
  % Growth (OD at 600 nm): 50% and 44% and 56%
[1]; bdf1-bd1Δ, 6.25 microM
  % Growth (OD at 600 nm): 98% and 99% and 93%
[1]; bdf1-bd1Δ, 12.5 microM
  % Growth (OD at 600 nm): 93% and 98% and 97%
[1]; bdf1-bd1Δ, 25 microM
  % Growth (OD at 600 nm): 88% and 86% and 96%
[1]; bdf1-bd1Δ, 50 microM
  % Growth (OD at 600 nm): 78% and 74% and 87%
[1]; bdf1-bd1Δ, 100 microM
  % Growth (OD at 600 nm): 50% and 43% and 61%
[1]; bdf1-bd2Y343F, 6.25 microM
  % Growth (OD at 600 nm): 89% and 90% and 88%
[1]; bdf1-bd2Y343F, 12.5 microM
  % Growth (OD at 600 nm): 80% and 76% and 84%
[1]; bdf1-bd2Y343F, 25 microM
  % Growth (OD at 600 nm): 68% and 61% and 66%
[1]; bdf1-bd2Y343F, 50 microM
  % Growth (OD at 600 nm): 40% and 46%
[1]; bdf1-bd2Y343F, 100 microM
  % Growth (OD at 600 nm): 20% and 22%
[1]; bdf1-bd2Δ, 6.25 microM
  % Growth (OD at 600 nm): 68% and 85%
[1]; bdf1-bd2Δ, 12.5 microM
  % Growth (OD at 600 nm): 64% and 70% and 59%
[1]; bdf1-bd2Δ, 25 microM
  % Growth (OD at 600 nm): 40% and 63% and 41%
[1]; bdf1-bd2Δ, 50 microM
  % Growth (OD at 600 nm): 30% and 38% and 23%
[1]; Fig 3D, 50 µM, WT BDF1-flag, Exp 1-3
  %Growth: 54.5% and 57.2% and 54.2%
[1]; Nakaseomyces glabratus, read-out: EC50 (μM) growth inhibition, strain WT BDF1 (both BDs active)
  EC50: 90 µM
[1]; Nakaseomyces glabratus, read-out: EC50 (μM) growth inhibition, strain bdf1-Y166F (active BD: BD2)
  EC50: ~100 µM
[1]; Nakaseomyces glabratus, read-out: EC50 (μM) growth inhibition, strain bdf1-Y343F (active BD: BD1)
  EC50: 36.6 ± 33 µM
[1]; Nakaseomyces glabratus, read-out: EC50 (μM) growth inhibition, strain bdf1-bd1Δ (active BD: BD2)
  EC50: ~100 µM
[1]; Nakaseomyces glabratus, read-out: EC50 (μM) growth inhibition, strain bdf1-bd2Δ (active BD: BD1)
  EC50: 22.7 ± 7.9 µM
[1]; Nakaseomyces glabratus, read-out: pEC50 (WT BDF1), Fig 2D (converted), WT C. glabrata, single experiments Exp1-3
  EC50: 86.5 µM
[1]; Nakaseomyces glabratus, read-out: pEC50 growth inhibition, Fig 2C (converted), strain BD1 Y-F, single experiments Exp1-3
  EC50: 107 µM
[1]; Nakaseomyces glabratus, read-out: pEC50 growth inhibition, Fig 2C (converted), strain BD2 Y-F, single experiments Exp1-3
  EC50: 36.4 µM
[1]; read-out: EC50 (μM) growth inhibition, strain WT BDF1 (both BDs active)
  EC50: 93 µM
Human Brd4 BD2
  IC50: > 20 µM
Human Brd4 BD2; 0.002 microM
  %HTRF Signal hBrd4 BD2: 101.87% and 97.60% and 95.93%
Human Brd4 BD2; 0.005 microM
  %HTRF Signal hBrd4 BD2: 107.00% and 95.29% and 98.83%
Human Brd4 BD2; 0.013 microM
  %HTRF Signal hBrd4 BD2: 110.74% and 98.44% and 97.06%
Human Brd4 BD2; 0.033 microM
  %HTRF Signal hBrd4 BD2: 106.00% and 100.34% and 100.19%
Human Brd4 BD2; 0.082 microM
  %HTRF Signal hBrd4 BD2: 114.59% and 102.11% and 105.40%
Human Brd4 BD2; 0.205 microM
  %HTRF Signal hBrd4 BD2: 102.46% and 102.49% and 103.89%
Human Brd4 BD2; 0.512 microM
  %HTRF Signal hBrd4 BD2: 110.69% and 102.99% and 100.42%
Human Brd4 BD2; 1.280 microM
  %HTRF Signal hBrd4 BD2: 110.63% and 103.66% and 98.46%
Human Brd4 BD2; 3.200 microM
  %HTRF Signal hBrd4 BD2: 107.03% and 99.12% and 95.88%
Human Brd4 BD2; 8.000 microM
  %HTRF Signal hBrd4 BD2: 99.23% and 96.86% and 85.81%
Human Brd4 BD2; 20.000 microM
  %HTRF Signal hBrd4 BD2: 80.43% and 88.19% and 83.66%
Human Brd4 BD1
  IC50: > 20 µM
Human Brd4 BD1; 0.002 microM
  %HTRF Signal hBrd4 BD1: 99.94% and 101.82% and 96.40%
Human Brd4 BD1; 0.005 microM
  %HTRF Signal hBrd4 BD1: 98.75% and 96.86% and 103.69%
Human Brd4 BD1; 0.013 microM
  %HTRF Signal hBrd4 BD1: 99.02% and 101.98% and 101.10%
Human Brd4 BD1; 0.033 microM
  %HTRF Signal hBrd4 BD1: 102.19% and 101.25% and 104.58%
Human Brd4 BD1; 0.082 microM
  %HTRF Signal hBrd4 BD1: 100.31% and 103.86% and 103.22%
Human Brd4 BD1; 0.205 microM
  %HTRF Signal hBrd4 BD1: 99.94% and 102.50% and 103.66%
Human Brd4 BD1; 0.512 microM
  %HTRF Signal hBrd4 BD1: 100.22% and 100.80% and 103.20%
Human Brd4 BD1; 1.280 microM
  %HTRF Signal hBrd4 BD1: 99.57% and 100.99% and 103.81%
Human Brd4 BD1; 3.200 microM
  %HTRF Signal hBrd4 BD1: 98.88% and 63.27% and 99.81%
